# Source: PMC11060137, “A Phase I Study of KIN-3248, an Irreversible Small-molecule Pan-FGFR Inhibitor, in Patients with Advanced FGFR2/3-driven Solid Tumors” (Cancer Research Communications, 2024)
# Like-named read-outs stand apart in the source and are kept apart here.
# Assays:
# [1] = Plasma pharmacokinetics in patients (LC/MS-MS, noncompartmental); format: in vivo, human
# Method: Blood for pharmacokinetic analysis was collected C1D1 (pretreatment and postdose at 0.25, 0.5, 1, 2, 4, 6, 8, 10 hours), […] (pretreatment, postdose at 1 and 2 hours), C1D8 and day 15 (pretreatment, postdose 1 hour), C2D1 (pretreatment, postdose at 0.25, 0.5, 1, 2, 4, 6, 8, 10 hours), and pretreatment and 1 hour postdose on day 1 of C3, C4 and cycle 5. KIN-3248 concentration was determined at each timepoint by an established and validated LC/MS-MS assay.
# serum phosphate = assay: Serum phosphate as pharmacodynamic biomarker; format: in vivo, human
# Method: (§1) As FGFR1 is expressed in renal tubules and pharmacologic inhibition of FGFR1 leads to phosphate retention ([18]), serum phosphate levels were measured at each study visit as a pharmacodynamic biomarker. Paired pretreatment and on-treatment biopsies (cycle 1 day 8 to day 21) were collected and analyzed for phospho-ERK and total ERK by IHC. DUSP6 gene expression was measured in tumor samples using RNA ISH (RNAscope; probes from Advanced Cell Diagnostics).
# [2] = system: FGFR2/3-driven cholangiocarcinoma, gastric, and bladder cancer xenograft models; parameters: method as in PMID 38267212; settings: cited from earlier work
# [3] = system: gatekeeper (V564F) resistance mutation; parameters: method as in PMID 38267212; settings: cited from earlier work
# phospho-ERK = assay: Phospho-ERK relative to total ERK by IHC in paired biopsies; format: in vivo, human
# Method: as §1
# [4] = system: patients with advanced solid tumors harboring FGFR2 and/or FGFR3 gene alterations
# Method: The study was divided into two parts. […] The secondary objectives included antitumor activity in Part A, determination of pharmacokinetics and pharmacodynamics.
# Dose level 1 was started at 5 mg oral daily, and patients were escalated on study to 50 mg daily. On the basis of ongoing efficacy, toxicity, and pharmacokinetic analysis, a planned amendment added additional cohorts up to 80 mg orally daily to define the MTD/RP2D. […] One cycle was 28 days of continuous dosing. Intrapatient dose escalation after safely tolerating two cycles was allowed if per protocol criteria were met. Patients continued therapy until evidence of disease progression, intolerance or unacceptable toxicity, withdrawal of consent, investigator decision, sponsor decision, or death.
# Patients were evaluated with medical history, physical examinations, and clinical laboratory on days 1, 8, 15, and 22 of cycle 1; days 1 and 15 from cycle 2 through cycle 5; and day 1 of each subsequent cycle. […] Except for hyperphosphatemia, adverse events (AE) were graded according to the NCI-CTCAE (Common Terminology Criteria for Adverse Events) Version 5.0 at each study visit and for approximately 30 days following end of treatment.
# The primary endpoints for the overall study, included: the incidence of DLTs, incidence of AEs, treatment-emergent AEs (TEAE), and treatment-related AEs (TRAE).
smiles,measurement,setting,value
C=CC(=O)N1C[C@@H](n2nc(C#Cc3c(F)cc4c(ncn4C4CC4)c3F)c(C(N)=O)c2NC)C[C@@H]1COC [KIN-3248],Exposure versus dose,[1]; 5-50 mg,generally dose proportional
same,"Concentrations in Asian (China, Taiwan, Korean) versus non-Asian patients",[1]; exploratory analysis,not a qualitative difference
same,Accumulation,[1]; first two cycles,not observed
same,Apparent clearance (CL/F),"[1]; human, in vivo","23,300-32,100 mL/hour"
same,Steady-state geometric mean half-life (t1/2),"[1]; human, in vivo",approximately 4 hours
same,Volume of distribution (V/F),"[1]; human, in vivo","135,000-200,000 mL"
same,Serum phosphate versus dose and exposure,serum phosphate; 54 participants,increased with dose and exposure
same,Onset of serum phosphate elevations,serum phosphate; all dose levels,within the f irst week
same,Tumor inhibition,[2],dose-dependent tumor inhibition
same,IC50,[3],low nanomolar
same,Phospho-ERK relative to total-ERK,"phospho-ERK; eleven paired biopsy samples, IHC",trend toward reduction
same,Samples tested with a reduction in p-ERK,phospho-ERK; paired pretreatment and on-treatment biopsies,50%
same,Patients with treatment reduced and discontinued because of TEAEs,[4]; 7 patients,13.0%
same,Patients with treatment-related grade 3 events,[4]; 11 of 54 patients,20.4%
same,Patients with treatment interrupted because of TEAEs,[4]; 16 patients,29.6%
same,Patients with TEAE grade ≥3 events,[4]; 25 of 54 patients,46.3%
same,Patients with TRAEs of any grade,[4]; 47 of 54 patients,87.0%
same,Patients with TEAEs of any grade,[4]; 53 of 54 patients,98.1%
same,TRAE of any grade: diarrhea,[4]; 54 patients,25.9%
same,TRAE of any grade: hyperphosphatemia,[4]; 54 patients,64.8%
same,TRAE of any grade: stomatitis,[4]; 54 patients,16.7%
same,Number of dose-limiting toxicities (DLT),"[4]; 54 patients, 5-50 mg orally daily, DLT at dose level 1 (5 mg): grade 3 drug hypersensitivity reaction",one
same,"Patient with any TEAE, n (%)","[4]; CTCAE (V5) Grade 1–2, N = 54",28 (51.9%)
same,"TEAE Alanine aminotransferase increased, n (%)","[4]; CTCAE (V5) Grade 1–2, N = 54",5 (9.3%)
same,"TEAE Aspartate aminotransferase increased, n (%)","[4]; CTCAE (V5) Grade 1–2, N = 54",4 (7.4%)
same,"TEAE Blood and lymphatic system disorders, n (%)","[4]; CTCAE (V5) Grade 1–2, N = 54",9 (16.7%)
same,"TEAE Blood creatinine increased, n (%)","[4]; CTCAE (V5) Grade 1–2, N = 54",7 (13.0%)
same,"TEAE Constipation, n (%)","[4]; CTCAE (V5) Grade 1–2, N = 54",12 (22.2%)
same,"TEAE Decreased appetite, n (%)","[4]; CTCAE (V5) Grade 1–2, N = 54",6 (11.1%)
same,"TEAE Diarrhea, n (%)","[4]; CTCAE (V5) Grade 1–2, N = 54",17 (31.5%)
same,"TEAE Dry mouth, n (%)","[4]; CTCAE (V5) Grade 1–2, N = 54",8 (14.8%)
same,"TEAE Eye disorders, n (%)","[4]; CTCAE (V5) Grade 1–2, N = 54",12 (22.2%)
same,"TEAE Fatigue, n (%)","[4]; CTCAE (V5) Grade 1–2, N = 54",11 (20.4%)
same,"TEAE Gastrointestinal disorders, n (%)","[4]; CTCAE (V5) Grade 1–2, N = 54",35 (64.8%)
same,"TEAE General disorders and administration site conditions, n (%)","[4]; CTCAE (V5) Grade 1–2, N = 54",18 (33.3%)
same,"TEAE Hypercalcemia, n (%)","[4]; CTCAE (V5) Grade 1–2, N = 54",5 (9.3%)
same,"TEAE Hyperphosphatemia, n (%)","[4]; CTCAE (V5) Grade 1–2, N = 54",29 (53.7%)
same,"TEAE Infections and infestations, n (%)","[4]; CTCAE (V5) Grade 1–2, N = 54",4 (7.4%)
same,"TEAE Investigations, n (%)","[4]; CTCAE (V5) Grade 1–2, N = 54",19 (35.2%)
same,"TEAE Metabolism and nutrition disorders, n (%)","[4]; CTCAE (V5) Grade 1–2, N = 54",30 (55.6%)
same,"TEAE Musculoskeletal and connective tissue disorders, n (%)","[4]; CTCAE (V5) Grade 1–2, N = 54",14 (25.9%)
same,"TEAE Nausea, n (%)","[4]; CTCAE (V5) Grade 1–2, N = 54",6 (11.1%)
same,"TEAE Nervous system disorders, n (%)","[4]; CTCAE (V5) Grade 1–2, N = 54",7 (13.0%)
same,"TEAE Psychiatric disorders, n (%)","[4]; CTCAE (V5) Grade 1–2, N = 54",7 (13.0%)
same,"TEAE Respiratory, thoracic, and mediastinal disorders, n (%)","[4]; CTCAE (V5) Grade 1–2, N = 54",7 (13.0%)
same,"TEAE Skin and subcutaneous tissue disorders, n (%)","[4]; CTCAE (V5) Grade 1–2, N = 54",14 (25.9%)
same,"TEAE Stomatitis, n (%)","[4]; CTCAE (V5) Grade 1–2, N = 54",11 (20.4%)
same,"TEAE Vascular disorders, n (%)","[4]; CTCAE (V5) Grade 1–2, N = 54",5 (9.3%)
same,"Patient with any TEAE, n (%)","[4]; CTCAE (V5) Grade 3, N = 54",18 (33.3%)
same,"TEAE Alanine aminotransferase increased, n (%)","[4]; CTCAE (V5) Grade 3, N = 54",1 (1.9%)
same,"TEAE Anemia, n (%)","[4]; CTCAE (V5) Grade 3, N = 54",2 (3.7%)
same,"TEAE Aspartate aminotransferase increased, n (%)","[4]; CTCAE (V5) Grade 3, N = 54",2 (3.7%)
same,"TEAE Blood and lymphatic system disorders, n (%)","[4]; CTCAE (V5) Grade 3, N = 54",3 (5.6%)
same,"TEAE Blood creatinine increased, n (%)","[4]; CTCAE (V5) Grade 3, N = 54",0
same,"TEAE Constipation, n (%)","[4]; CTCAE (V5) Grade 3, N = 54",0
same,"TEAE Decreased appetite, n (%)","[4]; CTCAE (V5) Grade 3, N = 54",0
same,"TEAE Diarrhea, n (%)","[4]; CTCAE (V5) Grade 3, N = 54",0
same,"TEAE Dry mouth, n (%)","[4]; CTCAE (V5) Grade 3, N = 54",0
same,"TEAE Eye disorders, n (%)","[4]; CTCAE (V5) Grade 3, N = 54",0
same,"TEAE Fatigue, n (%)","[4]; CTCAE (V5) Grade 3, N = 54",0
